Values quoted from earlier work as cited in PMC8198792, “Prediction of Anticancer Peptides with High Efficacy and Low Toxicity by Hybrid Model Based on 3D Structure of Peptides” (International Journal of Molecular Sciences, 2021).

System: erythrocytes
Conditions: Hemolytic peptides dataset HD2; label 1 = hemolytic, 0 = non-hemolytic; ref Hemolytik/SATPdb; cited from earlier work
Excerpt: Supplement ijms-22-05630-s001.zip/Hemloytic Peptides(seguence).xlsx, sheet "HD1" | column: Activity || Supplement ijms-22-05630-s001.zip/Hemloytic Peptides(seguence).xlsx, sheet "HD2" | column: Activity || Supplement ijms-22-05630-s001.zip/Hemloytic Peptides(seguence).xlsx, sheet "HD3" | column: Activity

Point of comparison: KLLLK [compound 3825], Activity 1. Against it:
- KWKLFKKIPKFLHLAKKF [compound 2405] — lower, 0
- KKlFKKILkYL [satpdb19353] — lower, 0
- WLLKW [satpdb27330] — lower, 0
- GIIKKI [satpdb22209] — lower, 0

Same assay, conditions: cited from earlier work

Point of comparison: FLSLIPHAINAVSAIAKHN [satpdb11891], Activity 1. Against it:
- KWKLFKKIPKFLHSAKKF [satpdb25981] — lower, 0
- RRLMAAKAESRK [satpdb23556] — lower, 0
- KKLKKLLKKWKKLLKKLK [satpdb24868] — lower, 0
- KKLKKLKKKWKKLKKKLK [satpdb24596] — lower, 0
- KKLLPIVANLLKSLL [satpdb19176] — lower, 0
- ENAEEDIVLMENLFCSYIVGSADSFWT [satpdb18741] — lower, 0
- GFMDTAKNVAKNVAVTLLDNLKCKITKAC [satpdb14159] — the same, 1
- PKLLKTFLKWIG [satpdb11234] — the same, 1
- GSKKPVPIIYCNRRAATGKCQRM [satpdb20782] — lower, 0
- DVNDLKNLCAKTHNLLPMCAMFGKK [satpdb20310] — lower, 0
- KKKKKKALFALWLAFAA [compound 1153] — the same, 1
- KLLLKLLKLLLKLLLKLLK [compound 3687] — the same, 1
- HVDKKVADKVLLLKQLRIMRLLTRL [satpdb19920] — lower, 0
- RRGWVLALYLRYGRR [satpdb15589] — the same, 1
- ENMFNIKSSVESDSFWG [satpdb15776] — lower, 0
- KLLKLLLKLLKLLLKLLLKLLK [compound 3828] — the same, 1
- KWKSFLKTFKSLKKTVLHTLLKAISS [satpdb11586] — the same, 1
- KSLRRVWRSWR [satpdb26460] — lower, 0
- KAACAAKCLWR [satpdb24099] — lower, 0
- EMLKKKEVKMERKT [satpdb18957] — lower, 0
- HALWMTLLKKVLKAAAKAALNAVLVGANA [satpdb12263] — the same, 1
- LLKKLLKWLKK [satpdb11747] — the same, 1
- GLWSTIKNVGKEAAIAAGKAALGAL [satpdb11818] — lower, 0
- GWKKWLRKGAKHLGQAAIK [satpdb12620] — the same, 1
- RRRAAFAAWAAFAARRR [satpdb23563] — lower, 0
- GWGSFFKKAAHVGKHVGKA [satpdb20663] — lower, 0
- FKCRRWQWRWKKLGAKPVPIIYCNRRTGKCQRM [satpdb24174] — lower, 0
- GLLSGTSVRGSI [satpdb16160] — the same, 1
- ALLHHGLNCAKGVLAALLHHGLNCAKGVLA [satpdb21285] — lower, 0
- GRDYRTSLTIVQKLKKMVD [satpdb22468] — lower, 0
- KWKLFKKIKFLHSAKKF [satpdb22653] — lower, 0
- KKWLKKWLK [satpdb18253] — lower, 0
- ILPWKLPLLPLRR [satpdb15320] — lower, 0
- LRQSQFVGSR [satpdb22092] — lower, 0
- GSKKPVPIIYANRRTGKAQRM [satpdb20538] — lower, 0
- CVHWQTNPARTSCIGP [satpdb12022] — lower, 0
- GIIKKIIKKI [satpdb26556] — lower, 0
- CVISAGWNHKIRCKLTGNC [satpdb27441] — lower, 0
- FLPLIGRVLSGIL [satpdb12693] — the same, 1
- MAFKKLEKVGRNIRDGIIKAGPAVAVIGQATSIARPTGK [satpdb16695] — lower, 0
- KWKLFKKIGIGKFLHSAKKF [compound 2023] — lower, 0
- GWGSFFKKAAAVGKAVGKAALTAYL [satpdb15739] — the same, 1
- RGGRLAYCRRRFCVAVGR [satpdb25189] — lower, 0
- LLLKLLKLLLKLLLKLLK [compound 3688] — the same, 1
- FLSLIPHAINAVSAIAKHF [satpdb17651] — lower, 0
- IPHAVKAISDLI [satpdb15419] — lower, 0
- FKTWKRPPFQTSCSGIIKE [satpdb21275] — lower, 0
- RIIDLLWRVRRPQKPKFVTVWVR [satpdb14815] — lower, 0
- AKKVFKRLEKLFSKIWNDK [satpdb16260] — lower, 0
- KNLRRITRKIIHIIKKYG [satpdb15247] — the same, 1
- VGKTWIKVIRGIGKSKIKWQ [satpdb28870] — lower, 0
- GILDTLKQFAKGVGKDLVKGAAQGVLSTVSCKLAKTC [satpdb16042] — lower, 0
- KVAKQEKKKKKTGRAKRR [satpdb15637] — the same, 1
- WYSEMKRNVQRLERAIEE [satpdb11990] — the same, 1
- KAVAAKKSPKKAKKPAT [satpdb19355] — lower, 0
- KRLFRRWQWRMKKY [satpdb17153] — lower, 0
- GMWSKIKNAGKAAKAAAKAAGKAALGAVSEAM [satpdb14564] — lower, 0

Point of comparison: KVAKQEKKKKKTGRAKRR [satpdb15637], “Activity (dataset HD1, hemolytic 1 / non-hemolytic 0)” value 1. Against it:
- RRLMAAKAESRK [satpdb23556] — lower, 0
- KKLKKLLKKWKKLLKKLK [satpdb24868] — lower, 0
- KKLKKLKKKWKKLKKKLK [satpdb24596] — lower, 0
- KKLLPIVANLLKSLL [satpdb19176] — lower, 0
- ENAEEDIVLMENLFCSYIVGSADSFWT [satpdb18741] — lower, 0
- GFMDTAKNVAKNVAVTLLDNLKCKITKAC [satpdb14159] — the same, 1
- PKLLKTFLKWIG [satpdb11234] — the same, 1
- GSKKPVPIIYCNRRAATGKCQRM [satpdb20782] — lower, 0
- DVNDLKNLCAKTHNLLPMCAMFGKK [satpdb20310] — lower, 0
- HVDKKVADKVLLLKQLRIMRLLTRL [satpdb19920] — lower, 0
- RRGWVLALYLRYGRR [satpdb15589] — the same, 1
- ENMFNIKSSVESDSFWG [satpdb15776] — lower, 0
- EMLKKKEVKMERKT [satpdb18957] — lower, 0
- HALWMTLLKKVLKAAAKAALNAVLVGANA [satpdb12263] — the same, 1
- FKCRRWQWRWKKLGAKPVPIIYCNRRTGKCQRM [satpdb24174] — lower, 0
- GLLSGTSVRGSI [satpdb16160] — the same, 1
- ALLHHGLNCAKGVLAALLHHGLNCAKGVLA [satpdb21285] — lower, 0
- GRDYRTSLTIVQKLKKMVD [satpdb22468] — lower, 0
- GSKKPVPIIYANRRTGKAQRM [satpdb20538] — lower, 0
- CVHWQTNPARTSCIGP [satpdb12022] — lower, 0
- CVISAGWNHKIRCKLTGNC [satpdb27441] — lower, 0
- MAFKKLEKVGRNIRDGIIKAGPAVAVIGQATSIARPTGK [satpdb16695] — lower, 0
- GWGSFFKKAAAVGKAVGKAALTAYL [satpdb15739] — the same, 1
- FKTWKRPPFQTSCSGIIKE [satpdb21275] — lower, 0
- RIIDLLWRVRRPQKPKFVTVWVR [satpdb14815] — lower, 0
- AKKVFKRLEKLFSKIWNDK [satpdb16260] — lower, 0
- KNLRRITRKIIHIIKKYG [satpdb15247] — the same, 1
- VGKTWIKVIRGIGKSKIKWQ [satpdb28870] — lower, 0
- GILDTLKQFAKGVGKDLVKGAAQGVLSTVSCKLAKTC [satpdb16042] — lower, 0
- KAVAAKKSPKKAKKPAT [satpdb19355] — lower, 0
- KRLFRRWQWRMKKY [satpdb17153] — lower, 0
- GMWSKIKNAGKAAKAAAKAAGKAALGAVSEAM [satpdb14564] — lower, 0

Same assay, conditions: hemolytic peptides dataset HD3; 1 = hemolytic (positive set), 0 = non-hemolytic (negative set); labels taken from databases; ref Hemolytik/SATPdb; cited from earlier work

Point of comparison: KWKLFKKIPKFLHLAKKF [compound 2405], Activity 0. Against it:
- FIFPKKNIINSLFGR [satpdb24412] — the same, 0
- KLLLK [compound 3825] — higher, 1
- CGESCVFIPCVTALLGCSCKSKVCYKNSIP [satpdb12547] — higher, 1
- KKlFKKILkYL [satpdb19353] — the same, 0
- WLLKW [satpdb27330] — the same, 0
- GIIKKI [satpdb22209] — the same, 0

Same assay, conditions: natural hemolytic peptide dataset HD1, label collected from databases; ref Hemolytik [49], SATPdb [34]; cited from earlier work

Point of comparison: “CGESCVFIPCVTALLGCSCKSKVCYKNSIP [satpdb12547]”, “Activity (dataset HD1, hemolytic 1 / non-hemolytic 0)” value 1. Against it:
- FIFPKKNIINSLFGR [satpdb24412] — lower, 0
